Results published in ChEMBL document CHEMBL3885861, “Open TG-GATES”.

Organism: Rattus norvegicus
Assay: Open TG-GATES - Regimen: Single
Type: toxicity, organism-based, Sprague-Dawley
Design: regimen Single, gender Male, age 6 weeks
Conditions: in vivo, po, 0 mg/kg, route gavage, dose level Control; for APTT / Bas / Eos / Fbg / Hb / Ht / Lym / MCH / MCHC / Mono / Neu / PT / Plat / RBC / Ret / WBC / MCV: tissue Blood; for KIDNEY_L / KIDNEY_R / KIDNEY_TOTAL: tissue Kidney; for LIVER: tissue Liver; for ALP / ALT / AST / BUN / CRE / Ca / Cl / DBIL / GLC / IP / K / LDH / Na / PL / RALB / TBIL / TC / TG / TP / gamma-GTP: tissue Plasma

## CCOc1ccc(NC(C)=O)cc1 [PHENACETIN]
3 h
  TERMINAL_BW: 210.2 g
  APTT: 17.4 s
  Bas: 0%
  Eos: 0.6%
  Fbg: 292 mg/dL
  Hb: 13.3 g/dL
  Ht: 40.2%
  Lym: 78.2%
  MCH: 20.7 pg
  MCHC: 33%
  Mono: 3%
  Neu: 17.8%
  PT: 13.7 s
  Plat: 114.8 x10_4/uL
  RBC: 641.4 x10_4/ul
  Ret: 8.1%
  WBC: 96.3 x10_2/uL
  KIDNEY_L: 0.9 g
  KIDNEY_R: 0.9 g
  KIDNEY_TOTAL: 1.8 g
  LIVER: 9.1 g
  ALP: 1765 IU/L
  ALT: 39.6 IU/L
  AST: 74.4 IU/L
  BUN: 11.6 mg/dL
  CRE: 0.2 mg/dL
  Ca: 11.1 mg/dL
  Cl: 105.4 meq/L
  DBIL: 0 mg/dL
  GLC: 169 mg/dL
  IP: 8.8 mg/dL
  K: 4.2 meq/L
  LDH: 115.4 IU/L
  Na: 142.2 meq/L
  PL: 153.4 mg/dL
  RALB: 2.5 g/dL
  TBIL: 0.05 mg/dL
  TC: 87.8 mg/dL
  TG: 53.2 mg/dL
  TP: 5.4 g/dL
  gamma-GTP: 1.8 IU/L
6 h
  TERMINAL_BW: 211 g
  APTT: 18.2 s
  Bas: 0.4%
  Eos: 1%
  Fbg: 290.8 mg/dL
  Hb: 13.6 g/dL
  Ht: 40.8%
  Lym: 76.2%
  MCH: 20.7 pg
  MCHC: 33.4%
  MCV: 62.2 fL
  Mono: 2.6%
  Neu: 19.4%
  PT: 14.1 s
  Plat: 119.9 x10_4/uL
  RBC: 656.6 x10_4/ul
  Ret: 7.6%
  WBC: 104.2 x10_2/uL
  KIDNEY_L: 0.9 g
  KIDNEY_R: 1 g
  KIDNEY_TOTAL: 1.9 g
  LIVER: 8.7 g
  ALP: 1471.4 IU/L
  AST: 74.4 IU/L
  BUN: 9.6 mg/dL
  CRE: 0.2 mg/dL
  Ca: 11 mg/dL
  Cl: 106 meq/L
  DBIL: 0 mg/dL
  GLC: 171.6 mg/dL
  IP: 9.3 mg/dL
  K: 4.1 meq/L
  LDH: 73.8 IU/L
  Na: 144 meq/L
  PL: 142 mg/dL
  RALB: 2.5 g/dL
  TBIL: 0.052 mg/dL
  TC: 78.8 mg/dL
  TG: 50 mg/dL
  TP: 5.4 g/dL
  gamma-GTP: 1.4 IU/L
9 h
  TERMINAL_BW: 210.5 g
  APTT: 17.7 s
  Bas: 0.2%
  Eos: 0.8%
  Fbg: 302.8 mg/dL
  Hb: 13.2 g/dL
  Ht: 39.7%
  Lym: 77.4%
  MCH: 21.6 pg
  MCHC: 33.3%
  MCV: 64.9 fL
  Mono: 2.6%
  PT: 13.7 s
  Plat: 116.6 x10_4/uL
  RBC: 611.4 x10_4/ul
  Ret: 8.6%
  WBC: 81.1 x10_2/uL
  KIDNEY_L: 0.9 g
  KIDNEY_R: 0.9 g
  KIDNEY_TOTAL: 1.9 g
  LIVER: 8.4 g
  ALP: 1519.6 IU/L
  ALT: 36.8 IU/L
  AST: 75.4 IU/L
  BUN: 9.2 mg/dL
  CRE: 0.2 mg/dL
  Ca: 10.9 mg/dL
  DBIL: 0.002 mg/dL
  GLC: 163.6 mg/dL
  IP: 9.8 mg/dL
  K: 4 meq/L
  LDH: 75.8 IU/L
  Na: 143.4 meq/L
  PL: 145.6 mg/dL
  RALB: 2.5 g/dL
  TBIL: 0.066 mg/dL
  TC: 81.6 mg/dL
  TG: 44.2 mg/dL
  TP: 5.4 g/dL
  gamma-GTP: 1.2 IU/L
24 h
  TERMINAL_BW: 226.9 g
  APTT: 17.2 s
  Bas: 0%
  Eos: 1%
  Fbg: 296.2 mg/dL
  Hb: 13.3 g/dL
  Ht: 40.1%
  Lym: 82.4%
  MCH: 21.1 pg
  MCHC: 33%
  MCV: 63.7 fL
  Mono: 2.2%
  Neu: 13.6%
  PT: 13.6 s
  Plat: 120.9 x10_4/uL
  RBC: 630.4 x10_4/ul
  Ret: 7.8%
  WBC: 100.3 x10_2/uL
  KIDNEY_L: 1 g
  KIDNEY_R: 1 g
  KIDNEY_TOTAL: 1.9 g
  LIVER: 10.7 g
  ALP: 1883.2 IU/L
  ALT: 37.2 IU/L
  AST: 66.2 IU/L
  BUN: 15.2 mg/dL
  CRE: 0.2 mg/dL
  Ca: 11.1 mg/dL
  Cl: 104.4 meq/L
  DBIL: 0.008 mg/dL
  GLC: 179 mg/dL
  IP: 7.9 mg/dL
  K: 4.2 meq/L
  LDH: 106.8 IU/L
  PL: 161.8 mg/dL
  RALB: 2.6 g/dL
  TBIL: 0.038 mg/dL
  TC: 81.8 mg/dL
  TG: 122.2 mg/dL
  TP: 5.7 g/dL
